# In the supplement of paper PMC10307832:
# How the values were obtained:
# Assay in all cases: relative viability (nuclei count vs DMSO), 5 days (fraction); higher = more cells survive
# [1] = test system: NCI-H520
# Outline: (§1)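 After 5 days of treatment, lung cancer cells in 1536-well plates were fixed and stained in a single step (final 0.05% Triton X-100, 1% formaldehyde, 1 ug/ml Hoechst) and their nuclei counted on 4× images. Treatment had been applied by pin tool the day after seeding as one drug alone or as a fixed anchor-drug dose with five library-drug doses (not always all listed) in √10 steps. Relative viability is the nuclei count of treated wells divided by that of vehicle wells, and values are medians of duplicate plates.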
# [2] = test system: NCI-H1666
# Outline: as §1
# [3] = test system: HOP-62
# Outline: as §1
# [4] = test system: NCI-H1355
# Outline: as §1
# [5] = test system: HCC-827
# Outline: as §1
# [6] = test system: LU99A
# Outline: as §1
# [7] = test system: NCI-H838
# Outline: as §1
# [8] = test system: NCI-H23
# Outline: as §1
# [9] = test system: NCI-H596
# Outline: as §1
# [10] = test system: EPLC-272H
# Outline: as §1
# [11] = test system: PC-14
# Outline: as §1
# [12] = test system: NCI-H322M
# Outline: as §1
# [13] = test system: NCI-H2405
# Outline: as §1
# [14] = test system: NCI-H1975
# Outline: as §1
# [15] = test system: NCI-H3122
# Outline: as §1
# [16] = test system: NCI-H647
# Outline: as §1
# [17] = test system: NCI-H727
# Outline: as §1
# [18] = test system: NCI-H2170
# Outline: as §1
# [19] = test system: UMC-11
# Outline: as §1
# [20] = test system: BEN
# Outline: as §1
# [21] = test system: NCI-H358
# Outline: as §1
# [22] = test system: ABC-1
# Outline: as §1
compound,measurement,setting,value
O=C(O)CCCCC(CCSCc1ccccc1)SCc1ccccc1 (stereo not given) [CPI-613] + O=C(CCCCCCC(=O)Nc1ccccc1)NO [Vorinostat] (partner 1 µM),relative viability,[1]; first compound 5 µM,0.831
same,relative viability,[1]; first compound 15.81 µM,0.693
same,relative viability,[1]; first compound 50 µM,0.657
same,relative viability,[1]; first compound 158.11 µM,0.325
same,relative viability,[1]; first compound 500 µM,0.11
same,relative viability,[2]; first compound 5 µM,1.07
same,relative viability,[2]; first compound 15.81 µM,1.01
same,relative viability,[2]; first compound 50 µM,1.01
same,relative viability,[2]; first compound 158.11 µM,0.542
same,relative viability,[2]; first compound 500 µM,0.417
same,relative viability,[3]; first compound 5 µM,0.531
same,relative viability,[3]; first compound 15.81 µM,0.49
same,relative viability,[3]; first compound 50 µM,0.574
same,relative viability,[3]; first compound 158.11 µM,0.285
same,relative viability,[3]; first compound 500 µM,0.0726
same,relative viability,[4]; first compound 5 µM,0.568
same,relative viability,[4]; first compound 15.81 µM,0.547
same,relative viability,[4]; first compound 50 µM,0.537
same,relative viability,[4]; first compound 158.11 µM,0.452
same,relative viability,[4]; first compound 500 µM,0.0985
same,relative viability,[5]; first compound 5 µM,0.769
same,relative viability,[5]; first compound 15.81 µM,0.703
same,relative viability,[5]; first compound 50 µM,0.773
same,relative viability,[5]; first compound 158.11 µM,0.497
same,relative viability,[5]; first compound 500 µM,0.656
same,relative viability,[6]; first compound 5 µM,0.474
same,relative viability,[6]; first compound 15.81 µM,0.408
same,relative viability,[6]; first compound 50 µM,0.466
same,relative viability,[6]; first compound 158.11 µM,0.394
same,relative viability,[6]; first compound 500 µM,0.223
same,relative viability,[7]; first compound 5 µM,0.675
same,relative viability,[7]; first compound 15.81 µM,0.625
same,relative viability,[7]; first compound 50 µM,0.797
same,relative viability,[7]; first compound 158.11 µM,0.3
same,relative viability,[7]; first compound 500 µM,0.107
same,relative viability,[8]; first compound 5 µM,0.612
same,relative viability,[8]; first compound 15.81 µM,0.586
same,relative viability,[8]; first compound 50 µM,0.591
same,relative viability,[8]; first compound 158.11 µM,0.168
same,relative viability,[8]; first compound 500 µM,0.0015
same,relative viability,[9]; first compound 5 µM,0.471
same,relative viability,[9]; first compound 15.81 µM,0.621
same,relative viability,[9]; first compound 50 µM,0.766
same,relative viability,[9]; first compound 158.11 µM,0.3
same,relative viability,[9]; first compound 500 µM,0.061
same,relative viability,[10]; first compound 5 µM,0.509
same,relative viability,[10]; first compound 15.81 µM,0.406
same,relative viability,[10]; first compound 50 µM,0.268
same,relative viability,[10]; first compound 158.11 µM,0.0975
same,relative viability,[10]; first compound 500 µM,0.0196
same,relative viability,[11]; first compound 5 µM,0.732
same,relative viability,[11]; first compound 15.81 µM,0.612
same,relative viability,[11]; first compound 50 µM,0.611
same,relative viability,[11]; first compound 158.11 µM,0.0514
same,relative viability,[11]; first compound 500 µM,0.0074
same,relative viability,[12]; first compound 5 µM,0.809
same,relative viability,[12]; first compound 15.81 µM,0.722
same,relative viability,[12]; first compound 50 µM,0.777
same,relative viability,[12]; first compound 158.11 µM,0.703
same,relative viability,[12]; first compound 500 µM,0.161
same,relative viability,[13]; first compound 5 µM,1.09
same,relative viability,[13]; first compound 15.81 µM,0.79
same,relative viability,[13]; first compound 50 µM,0.787
same,relative viability,[13]; first compound 158.11 µM,0.569
same,relative viability,[13]; first compound 500 µM,0.468
same,relative viability,[14]; first compound 5 µM,0.73
same,relative viability,[14]; first compound 15.81 µM,0.735
same,relative viability,[14]; first compound 50 µM,0.692
same,relative viability,[14]; first compound 158.11 µM,0.24
same,relative viability,[14]; first compound 500 µM,0.0367
same,relative viability,[15]; first compound 5 µM,0.795
same,relative viability,[15]; first compound 15.81 µM,0.89
same,relative viability,[15]; first compound 50 µM,0.961
same,relative viability,[15]; first compound 158.11 µM,0.728
same,relative viability,[15]; first compound 500 µM,0.805
same,relative viability,[16]; first compound 5 µM,0.598
same,relative viability,[16]; first compound 15.81 µM,0.568
same,relative viability,[16]; first compound 50 µM,0.303
same,relative viability,[16]; first compound 158.11 µM,0.0385
same,relative viability,[16]; first compound 500 µM,0.014
same,relative viability,[17]; first compound 5 µM,1.1
same,relative viability,[17]; first compound 15.81 µM,1.07
same,relative viability,[17]; first compound 50 µM,1.04
same,relative viability,[17]; first compound 158.11 µM,1.01
same,relative viability,[17]; first compound 500 µM,0.642
same,relative viability,[18]; first compound 5 µM,0.723
same,relative viability,[18]; first compound 15.81 µM,0.783
same,relative viability,[18]; first compound 50 µM,0.774
same,relative viability,[18]; first compound 158.11 µM,0.541
same,relative viability,[18]; first compound 500 µM,0.31
same,relative viability,[19]; first compound 5 µM,0.355
same,relative viability,[19]; first compound 15.81 µM,0.358
same,relative viability,[19]; first compound 50 µM,0.39
same,relative viability,[19]; first compound 158.11 µM,0.126
same,relative viability,[19]; first compound 500 µM,0.1
same,relative viability,[20]; first compound 5 µM,0.491
same,relative viability,[20]; first compound 15.81 µM,0.529
same,relative viability,[20]; first compound 50 µM,0.558
same,relative viability,[20]; first compound 158.11 µM,0.593
same,relative viability,[20]; first compound 500 µM,0.607
same,relative viability,[21]; first compound 5 µM,0.683
same,relative viability,[21]; first compound 15.81 µM,0.561
same,relative viability,[21]; first compound 50 µM,0.62
same,relative viability,[21]; first compound 158.11 µM,0.0809
same,relative viability,[21]; first compound 500 µM,0.0166
same,relative viability,[22]; first compound 5 µM,1.21
same,relative viability,[22]; first compound 15.81 µM,0.811
same,relative viability,[22]; first compound 50 µM,0.995
same,relative viability,[22]; first compound 158.11 µM,0.701
same,relative viability,[22]; first compound 500 µM,0.318
